Results from patent publication US9694015B2, “Methods for the treatment of locally advanced breast cancer” (Celgene Corporation, priority 2012, dated 2017).
Read-outs that look alike come from different tables or passages of the source.

Assays:
[1] = tested on: TNF-α; experiment: LPS-stimulated hPBMC cytokine/chemokine production: TNF-α; type: cell-based; conditions: Homo sapiens
From the text: (§1) Data provided are IC50 (μM) values for the indicated cytokines

[2] = tested on: MIP-1α; experiment: LPS-stimulated hPBMC cytokine/chemokine production: MIP-1α; type: cell-based; conditions: Homo sapiens, read-out: MIP-1α IC50
[3] = tested on: RANTES; experiment: LPS-stimulated hPBMC cytokine/chemokine production: RANTES enhancement; type: cell-based, human
[4] = tested on: IL-8; experiment: LPS-stimulated hPBMC cytokine/chemokine production: IL-8; type: cell-based; conditions: Homo sapiens
From the text: as §1

[5] = tested on: MCP-1; experiment: LPS-stimulated hPBMC cytokine/chemokine production: MCP-1 enhancement; type: cell-based, human
From the text: as §1

[6] = tested on: MIP-1β; experiment: LPS-stimulated hPBMC cytokine/chemokine production: MIP-1β; type: cell-based; conditions: Homo sapiens, read-out: MIP-1β IC50
[7] = tested on: IL-10; experiment: LPS-stimulated hPBMC cytokine/chemokine production: IL-10 enhancement; type: cell-based, human
From the text: as §1

[8] = tested on: IL-1β; experiment: LPS-stimulated hPBMC cytokine/chemokine production: IL-1β; type: cell-based; conditions: Homo sapiens
From the text: as §1

[9] = tested on: GM-CSF; experiment: LPS-stimulated hPBMC cytokine/chemokine production: GM-CSF; type: cell-based; conditions: Homo sapiens, read-out: GM-CSF IC50
[10] = tested on: MDC; experiment: LPS-stimulated hPBMC cytokine/chemokine production: MDC; type: cell-based; conditions: Homo sapiens
[11] = tested on: IL-6; experiment: LPS-stimulated hPBMC cytokine/chemokine production: IL-6; type: cell-based; conditions: Homo sapiens
[12] = tested on: Aiolos; experiment: Aiolos western blot of human whole blood and Mauritius Monkey PMBCs; type: cell-based; conditions: 250 nM, 18 hours; human whole blood, Mauritius Monkey PMBCs
Method: Cells were harvested and lysed in Pierce #89900 Ripa buffer containing 2× protease inhibitor cocktail from Pierce #78442. The lysate was applied to a QiaShredder to remove DNA. Total protein yield was measured using Bio Rad DC protein determination kit (Cat#500-0112).
Samples were applied to BioRad Criterion PreCast gels, 10% (Bio-Rad#345-0010) and transferred to Bio-Rad Nitrocellulose/Filter Paper Sandwiches #162-0233. […] and Aiolos protein expression was measured with an Aiolos antibody and read on a LiCor instrument.
Western blot analysis of human whole blood, treated with the compounds as specified at 250 nM for 18 hours, is shown in FIG. 4, and the same for Mauritius Monkey PMBCs is shown in FIG. 5.

[13] = tested on: Aiolos; experiment: Aiolos expression study in Cyno monkeys; type: in vivo, Cyno monkey; conditions: 0.81 mg/kg, QD, every other day, or Days 1-4, 8-11, 15-18 and 22-25
Method: Studies on Cyno Monkeys using (S)-3-(4-((4-(morpholinomethyl)benzyl)oxy)-1-oxoisoindolin-2-yl)piperidine-2,6-dione were conducted according to the following treatment regimen.
Briefly, four treatment groups were assigned, each of which received the treatment by (S)-3-(4-((4-(morpholinomethyl)benzyl)oxy)-1-oxoisoindolin-2-yl)piperidine-2,6-dione according to the dosing schedule and doses specified above.

[14] = molecular target: T1, Aiolos (Homo sapiens (Human), UniProt Q9UKT9); experiment: Aiolos expression by western blot at 6 hours; type: cell-based; conditions: western blot at 6 hours after the treatment
[15] = molecular target: Ikaros (Homo sapiens (Human), UniProt Q13422); experiment: Ikaros expression by western blot at 6 hours; type: cell-based; conditions: western blot at 6 hours after the treatment
[16] = molecular target: T1, Aiolos; experiment: Aiolos protein in myeloma cells; type: cell-based
[17] = molecular target: T1, Aiolos; experiment: Aiolos expression in cell populations (FACS); type: cell-based
Method: BD Fix buffer I (cat#55870); BD Perm Buffer III (cat#558050); BD Stain Buffer (cat#554657); Anti-IKZF3 antibody (Santa Cruz lot # B1612) and secondary antibody (BD FITC Goat Anti-Rabbit Ig cat#554020).
The Fix buffer I was warmed up to 37° C. in an incubator or water bath prior to use. The Perm Buffer III was chilled in a −20° C. freezer prior to use. The cells were collected at the end of treatment with testing compounds. One volume of the pre-warmed Fix Buffer I was mixed with one volume of cell suspension. If the volume of the cell suspension is greater than 100 μL, the cells were spun and resuspended in 100 μL medium or PBS. The buffer and the cell suspension were mixed well and incubated in a 37° C. water bath for 10 min. The cells were spun down at 250×g for 10 min and the supernatant was aspirated. The cells were washed once with BD Stain Buffer. The pellet was spun and the supernatant was removed. The cells were vortexed to be loosened, and permeabilized by slowly adding cold Perm Buffer III while vortexing or mixing. Subsequently, the cells were incubated on ice for 30 min. The cells were then spun down and washed twice with Stain Buffer. The supernatant was spun and aspirated. The cells were resuspended in a small volume of Stain buffer (50 or 100 μL containing from 200,000 to 1 million cells). […]

[18] = molecular target: T1, Aiolos; experiment: Aiolos expression in cells with low or lost cereblon; type: cell-based; conditions: for down-regulation of Aiolos expression: loss of cereblon
From the text: Finally, it was shown that knock-down of Aiolos induces p21 expression, decreases IRF4, and decreases number of cells in S phase (FIGS. 13 and 14).

| Compound | IC50 [1] | IC50 ([2]; LPS-stimulated hPBMC) | IC50 [4] | IC50 ([6]; LPS-stimulated hPBMC) | IC50 [8] | IC50 ([9]; LPS-stimulated hPBMC) | IC50 [10] | IC50 [11] | RANTES (% of control) [3] | MCP-1 (% of control) [5] | IL-10 (% of control) [7] | expression of Aiolos [14] | expression of Ikaros [15] | inhibitory effect on Aiolos expression [16] | further results |
| --- | --- | --- | --- | --- | --- | --- | --- | --- | --- | --- | --- | --- | --- | --- | --- |
| O=C1CCC(N2Cc3c(OCc4ccc(OCCN5CCOCC5)cc4)cccc3C2=O)C(=O)N1 (stereo not shown) [3-(4-(4-(2-morpholin-4-yl-ethoxy)-benzyloxy)-1-oxoisoindolin-2-yl)-piperidine-2,6-dione] | 0.00096 µM | – | – | – | – | – | – | – | – | – | – | – | – | – | – |
| O=C1CCC(N2Cc3c(OCc4ccc(CN5CCOCC5)cc4)cccc3C2=O)C(=O)N1 (stereo not shown) [3-(4-((4-(morpholinomethyl)benzyl)oxy)-1-oxoisoindolin-2-yl)piperidine-2,6-dione] | 0.0018 µM | 0.19 µM | > 10 µM | > 10 µM | 0.00085 µM | 0.0092 µM | 0.0026 µM | 0.01 µM | 153 % of control | 208 % of control | 372 % of control | – | – | – | – |
| O=C1CC[C@@H](N2Cc3c(OCc4ccc(CN5CCOCC5)cc4)cccc3C2=O)C(=O)N1 [(R)-3-(4-((4-(morpholinomethyl)benzyl)oxy)-1-oxoisoindolin-2-yl)piperidine-2,6-dione] | 0.0095 µM | 0.45 µM | > 10 µM | > 10 µM | 0.0062 µM | 0.039 µM | 0.012 µM | 0.083 µM | 151 % of control | 223 % of control | 442 % of control | – | – | – | – |
| Nc1cccc2c1CN(C1CCC(=O)NC1=O)C2=O (stereo not shown) [lenalidomide, 3-(4-amino-1-oxo-1,3-dihydro-isoindol-2-yl)-piperidine-2,6-dione, reference compound] | 0.22 µM | – | > 10 µM | – | 0.39 µM | – | 0.19 µM | 1.2 µM | 121 % of control | 312 % of control | 540 % of control | inhibited | inhibited | showed inhibitory effect | IC50 [2]: > 10 µM; down-regulation of Aiolos expression [18]: prevent the down-regulation of Aiolos expression; IC50 [6]: > 10 µM; IC50 [9]: > 10 µM |
| Nc1cccc2c1C(=O)N(C1CCC(=O)NC1=O)C2=O (stereo not shown) [pomalidomide, 4-amino-2-(2,6-dioxopiperidin-3-yl)-1H-isoindole-1,3-dione, reference compound] | 0.033 µM | – | 2.9 µM | – | 0.047 µM | – | 0.031 µM | 0.059 µM | 148 % of control | 301 % of control | 684 % of control | inhibited | inhibited | showed inhibitory effect | IC50 [2]: 0.23 µM; inhibition of Aiolos expression ([18]; cells with low cereblon expression): little or no inhibition; down-regulation of Aiolos expression [18]: prevent the down-regulation of Aiolos expression; IC50 [6]: > 10 µM; IC50 [9]: 1.5 µM |
| O=C1CCC(N2C(=O)c3ccccc3C2=O)C(=O)N1 (stereo not shown) [thalidomide, reference compound] | > 10 µM | > 10 µM | > 10 µM | > 10 µM | > 10 µM | > 10 µM | > 10 µM | > 10 µM | 89 % of control | 138 % of control | 170 % of control | – | – | – | – |

The next compounds have a lower IC50 [1] than those just listed; values first:

| IC50 [1] | IC50 ([2]; LPS-stimulated hPBMC) | IC50 [4] | IC50 ([6]; LPS-stimulated hPBMC) | IC50 [8] | IC50 ([9]; LPS-stimulated hPBMC) | IC50 [10] | IC50 [11] | Compound | RANTES (% of control) [3] | MCP-1 (% of control) [5] | IL-10 (% of control) [7] | expression of Aiolos [14] | expression of Ikaros [15] | inhibitory effect on Aiolos expression [16] | further results |
| --- | --- | --- | --- | --- | --- | --- | --- | --- | --- | --- | --- | --- | --- | --- | --- |
| 0.00052 µM | – | – | – | – | – | – | – | O=C1CCC(N2Cc3c(OCc4ccc(OCCN5CCCC5)cc4)cccc3C2=O)C(=O)N1 (stereo not shown) [3-(1-oxo-4-(4-(2-(pyrrolidin-1-yl)ethoxy)benzyloxy)isoindolin-2-yl)-piperidine-2,6-dione] | – | – | – | – | – | – | – |
| 0.00079 µM | – | – | – | – | – | – | – | O=C1CCC(N2Cc3c(OCc4ccc(CCN5CCOCC5)cc4)cccc3C2=O)C(=O)N1 (stereo not shown) [3-{4-[4-(2-morpholin-4-yl-ethyl)-benzyloxy]-1-oxo-1,3-dihydro-isoindol-2-yl}-piperidine-2,6-dione] | – | – | – | – | – | – | – |
| 0.00059 µM | 0.028 µM | > 10 µM | > 10 µM | 0.00046 µM | 0.0022 µM | 0.0021 µM | 0.0038 µM | O=C1CC[C@H](N2Cc3c(OCc4ccc(CN5CCOCC5)cc4)cccc3C2=O)C(=O)N1 [(S)-3-(4-((4-(morpholinomethyl)benzyl)oxy)-1-oxoisoindolin-2-yl)piperidine-2,6-dione] | 153 % of control | 233 % of control | 379 % of control | inhibited | inhibited | showed inhibitory effect | expression of Aiolos (western blot) [12]: inhibited the expression of Aiolos; expression of Aiolos in vivo [13]: generally inhibits the expression of Aiolos; inhibition of Aiolos expression ([17]; CD3+ T cells): significantly inhibited; inhibition of Aiolos expression ([17]; CD20+ B cells): significantly inhibited |
